{"source": "patent US20220016061A1", "about": "“Preparation Stabilized by Means of Nonaqueous Solvent” (MEDRx Co., Ltd., priority 2018, published 2022)", "key": {"[1]": {"experiment": "Assessment of stability of baclofen hydrochloride solution (Example 3)", "format": "physicochemical", "conditions": "water, NMP, propylene glycol, glycerin; 50° C.", "protocol": "Baclofen (10.0 g) was dissolved in 10% hydrochloric acid (20 g), the solvent in the prepared solution was frozen, and then the frozen product was dried in a lyophilizer overnight to give baclofen hydrochloride.\nThe resulting baclofen hydrochloride was dissolved in water, NMP (N-methylpyrrolidone), propylene glycol or glycerin to prepare each solution comprising baclofen hydrochloride in an amount of 0.25% by weight. Each of the prepared solutions was stored at 50° C. and the contexts of baclofen and ring products thereof in the solutions were measured after 1 and 2 weeks of the storage to assess the stability of baclofen."}, "[2]": {"experiment": "Solubility of baclofen in solvents", "format": "physicochemical", "description": "The concentration of baclofen was insufficient to be used as an external preparation."}}, "note": "Structures can show the parent of a compound that is named as a salt."}
{"smiles": "NCC(CC(=O)O)c1ccc(Cl)cc1", "note": "(stereo not shown) [Baclofen hydrochloride]", "values": [{"measurement": "stability when dissolved in the solvents", "setting": "[1]", "value": "stable"}]}
{"smiles": "NCC(CC(=O)O)c1ccc(Cl)cc1", "note": "(stereo not shown) [baclofen, 4-amino-3-(4-chloropehnyl)butanoic acid]", "values": [{"measurement": "solubility in 10% hydrochloric acid", "setting": "[2]; 10% hydrochloric acid", "value": "about 39%"}, {"measurement": "solubility in lactic acid", "setting": "[2]; lactic acid", "value": "about 33%"}, {"measurement": "solubility in water", "setting": "[2]; water", "value": "about 0.27%"}]}
